Experimental data from publication PMC4176827 (Molecular and biochemical parasitology, 2014).

Tests used:
[1] = target: T1, CpDHS (Cryptosporidium parvum, UniProt A3FQA5); test: radiometric deoxyhypusine synthase assay; format: biochemical; conditions: read-out: % inhibition at 1 μM
T1 sequence (A3FQA5 1-362): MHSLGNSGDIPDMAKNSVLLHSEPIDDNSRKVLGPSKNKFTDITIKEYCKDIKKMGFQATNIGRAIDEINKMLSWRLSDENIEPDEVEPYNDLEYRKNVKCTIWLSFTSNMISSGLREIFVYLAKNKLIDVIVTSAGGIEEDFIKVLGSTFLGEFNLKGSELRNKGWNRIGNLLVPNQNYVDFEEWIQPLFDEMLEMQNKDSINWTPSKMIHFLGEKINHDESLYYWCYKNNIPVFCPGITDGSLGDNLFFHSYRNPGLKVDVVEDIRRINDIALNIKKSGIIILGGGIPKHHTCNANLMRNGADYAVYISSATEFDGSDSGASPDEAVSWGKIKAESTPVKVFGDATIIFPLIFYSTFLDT

[2] = target: T1, CpDHS; test: fluorescence of enzyme-bound NADH; format: biochemical; conditions: 100 µM spermidine, no eIF5A, 0.2 M glycine buffer pH 9.2

Work on N=C(N)NCCCCCCCN [GC7, N^1-guanyl-1,7-diaminoheptane] yielded an inhibition at 1 µM [1] greater than 90%.

For NC(=O)c1ccc[n+]([C@@H]2O[C@H](COP(=O)(O)OP(=O)(O)OC[C@H]3O[C@@H](n4cnc5c(N)ncnc54)[C@H](O)[C@@H]3O)[C@@H](O)[C@H]2O)c1 [NAD^+], the “fluorescence of enzyme-bound NADH (excitation 340 nm, emission 441 nm)” value [2] was “both spermidine and NAD^+ are required for NADH fluorescence”.
